Where two headings read alike, the source gives them in different places.
Assays:
[1] = test system: WI38 normal human fibroblast cells; assay: SRB growth inhibition assay, 96 hr exposure, WI38; format: cell-based
Experimental: (§1) Human cancer cell lines, MCF7 (breast), A549 (lung), Mia-PaCa2, PANC1 and HPAC (pancreatic), RCC4 and 786-0 renal, and the somatic human cell line WI-38 (lung fibroblast) were purchased from ATCC. Cell lines were maintained in appropriate medium supplemented with 10% foetal bovine serum (Invitrogen, UK), 2 mM L-glutamine (Invitrogen, Netherlands), and other components as specified by the suppliers. Cell lines were maintained at 37° C., 5% CO2 and routinely passaged. Drugs were dissolved in DMSO and filtered through 0.22 μm pore-size filter units before addition to cell line appropriate media. Cellular growth inhibition was measured using the sulforhodamine B (SRB) assay in 96 well plates as described previously.^1,2 Fifty percent inhibitory concentrations (IC50) were determined by taking the mean absorbance at 540 nm for each drug concentration expressed as a percentage of the absorbance of untreated control wells.
The anti-proliferative activity of the group of nine ND derivatives was assessed using the SRB assay following 96 h exposure to 2-fold serial dilutions of each compound (Table 2) in a panel of cancer cell lines together with a normal fibroblast line. […] In contrast the morpholine compounds all show sub-μM anti-proliferative activity in at least some of the cancer cell lines used and the two compounds 3d, 3h with n=3 —(CH2)n— linkers to the morpholine groups, show particularly potent activity in the Mia-PaCa2 and PANC1 pancreatic carcinoma and A549 lung adenocarcinoma cell lines (IC50 values of 10-20 nM). […]

[2] = test system: human telomeric G-quadruplex DNA (F21T); assay: FRET melting assay, human telomeric quadruplex; format: binding; conditions: for change in melting temperature F21T 1 uM: 1 uM ligand; for change in melting temperature F21T 2 uM: 2 uM ligand; for selectivity for quadruplex over duplex DNA (in words): compared to the n=3 compounds
Excerpt: (§2) The ability of the naphthalene diimide compounds to stabilize DNA sequences was investigated using a fluorescence resonance energy transfer (FRET) assay modified to be used as a high-throughput screen in a 96-well format. Several quadruplex sequences were studied (the human telomeric G-quadruplex DNA sequence 5′-FAM-d(GGG[TTAGGG]3)-TAMRA-3′ and the duplex sequence 5′-FAM-dTATAGCTATA-HEG-TATAGCTATA-TAMRA-3′ (HEG linker: [(—CH2—CH2—O—)6])), as well as two overlapping sequences from the HSP90 promoter region (HSP90a and HSP90b):
(§3) The labelled oligonucleotides have attached to them the donor fluorophore FAM: 6-carboxyfluorescein and the acceptor fluorophore TAMRA: 6-carboxytetramethylrhodamine. The FRET probe sequences were diluted from stock to the correct concentration (400 nM) in a 60 mM potassium cacodylate buffer (pH 7.4) and then annealed by heating to 85° C. for 10 min, followed by cooling to room temperature in the heating block. The compound was stored as a 10 mM stock solution in DMSO; final solutions (at 2×concentration) were prepared using 10 mM HCl in the initial 1:10 dilution, after which 60 mM potassium cacodylate buffer (pH 7.4) was used in all subsequent steps. The maximum HCl concentration in the reaction volume (at a ligand concentration of 20 μM) is thus 200 μM, well within the range of the buffer used. Relevant controls were also performed to check for interference with the assay. 96-Well plates (MJ Research, Waltham, Mass.) were prepared by aliquoting 50 μl of the annealed DNA into each well, followed by 50 μl of the compound solutions. Measurements were made on a DNA Engine Opticon (MJ Research) with excitation at 450-495 nm and detection at 515-545 nm. Fluorescence readings were taken at intervals of 0.5° C. in the range 30-100° C., with a constant temperature being maintained for 30 s prior to each reading to ensure a stable value. Final analysis of the data was carried out using a script written in the program Origin 7.0 (OriginLab Corp., Northampton, Mass.). The advanced curve-fitting function in Origin 7.0 was used for calculation of ΔTm values. All determinations were performed in triplicate or better. Esds in ΔTm are ±0.1° C.
The ability of compounds 3a-h to stabilize a human telomeric quadruplex was assessed by a high-throughput FRET (Fluorescence Resonance Energy Transfer) melting technique. […] None of the furan tetrahydrofuran, pyranose or acyclic ether compounds has any effect on quadruplex or duplex stability.
(§4) The T-loop sequence represents duplex DNA.

A549 (lung) cells = assay: SRB growth inhibition assay, 96 hr exposure, A549; format: cell-based, human
Experimental: as §1
(§5) The anti-proliferative activity of the group of nine ND derivatives was assessed using the SRB assay following 96 h exposure to 2-fold serial dilutions of each compound (Table 2) in a panel of cancer cell lines together with a normal fibroblast line. […] In contrast the morpholine compounds all show sub-μM anti-proliferative activity in at least some of the cancer cell lines used and the two compounds 3d, 3h with n=3 —(CH2)n— linkers to the morpholine groups, show particularly potent activity in the Mia-PaCa2 and PANC1 pancreatic carcinoma and A549 lung adenocarcinoma cell lines (IC50 values of 10-20 nM).
(§6) Next a series of structural isomers were tested.

[3] = test system: HSP90a promoter quadruplex sequence; assay: FRET melting assay, Hsp90A quadruplex; format: binding; conditions: for change in melting temperature Hsp90A 1 uM: 1 uM ligand; for change in melting temperature Hsp90A 2 uM: 2 uM ligand
Excerpt: as §2
as §3, with “±0.1° C. […]” for “±0.1° C.”

duplex DNA (T-loop) = assay: FRET melting assay, duplex DNA; format: binding; conditions: for change in melting temperature Tloop 1 uM: 1 uM ligand; for change in melting temperature Tloop 2 uM: 2 uM ligand
Excerpt: as §2, §3, §4

786-O (renal) cells = assay: SRB growth inhibition assay, 96 hr exposure, 786-O; format: cell-based, human; conditions: SRB assay, 96 hr exposure
Experimental: as §1, §5, §6

[4] = test system: MiaPaCa2 (pancreatic) cells; assay: SRB growth inhibition assay, MiaPaCa2; format: cell-based, human; conditions: SRB assay, 96 hr exposure
Experimental: as §1, §5
Dose-response curves were used to guide the choice of compound concentration and time-points for the array experiments (FIG. 2a). […] To explore this response continuum the transcriptional signature of cells exposed for 24 h to 20 nM, 40 nM, 80 nM concentrations of 3d, or solvent alone as control, was analysed as described in Materials and Methods.
as §6

[5] = test system: HSP90b promoter quadruplex sequence; assay: FRET melting assay, Hsp90B quadruplex; format: binding; conditions: for change in melting temperature Hsp90B 1 uM: 1 uM ligand; for change in melting temperature Hsp90B 2 uM: 2 uM ligand
Excerpt: as §2
as §3, with “±0.1° C. […]” for “±0.1° C.”

RCC4 (renal) cells = assay: SRB growth inhibition assay, 96 hr exposure, RCC4; format: cell-based, human
Experimental: as §1, §5, §6

MCF-7 (breast) cells = assay: SRB growth inhibition assay, 96 hr exposure, MCF-7; format: cell-based, human
Experimental: as §1, §5, §6

Panc1 (pancreatic) cells = assay: SRB growth inhibition assay, 96 hr exposure, Panc1; format: cell-based, human; conditions: 96 hr exposure
Experimental: as §1, §5, §6

[6] = Homo sapiens, A549, 96 hr exposure

Row | SMILES | change in melting temperature F21T 1 uM [2] | change in melting temperature F21T 2 uM [2] | change in melting temperature Hsp90A 1 uM [3] | change in melting temperature Hsp90A 2 uM [3] | change in melting temperature Tloop 1 uM (duplex DNA (T-loop)) | change in melting temperature Tloop 2 uM (duplex DNA (T-loop)) | change in melting temperature Hsp90B 1 uM [5] | change in melting temperature Hsp90B 2 uM [5] | IC50 ([1]; Homo sapiens, WI-38) [µM] | IC50 (A549 (lung) cells; [6]) [µM] | IC50 (786-O (renal) cells; Homo sapiens, 786-0) [µM] | IC50 ([4]; Homo sapiens, MIA PaCa-2) [µM] | IC50 (RCC4 (renal) cells; Homo sapiens, RCC4) [µM] | IC50 (MCF-7 (breast) cells; Homo sapiens, MCF7) [µM] | also measured
1 | CN1CCN(CCCN2C(=O)c3cc(NCC4CCCO4)c4c5c(cc(NCC6CCCO6)c(c35)C2=O)C(=O)N(CCCN2CCN(C)CC2)C4=O)CC1 (racemic) [SKM038] | <2 | 15 | 21 | 23 | 0 | 0 | 13 | 17 | – | – | – | – | – | – | IC50 [1]: 2.3 ± 0.08 µM; IC50 (A549 (lung) cells; 96 hr exposure): 0.16 ± 0.002 µM; IC50 (786-O (renal) cells): 0.39 ± 0.02 µM; IC50 [4]: 0.095 ± 0.003 µM; IC50 (RCC4 (renal) cells): 3 ± 0.17 µM; IC50 (MCF-7 (breast) cells): 0.56 ± 0.034 µM; IC50 (Panc1 (pancreatic) cells): 1.5 ± 0.17 µM
2 | CN1CCN(CCCNc2cc3c4c(c(NCCCN5CCN(C)CC5)cc5c4c2C(=O)N(CCN2CCOCC2)C5=O)C(=O)N(CCN2CCOCC2)C3=O)CC1 [Compound 3f, 4,9-bis((3-(4-methylpiperazin-1-yl)propyl)amino)-2,7-bis(2-morpholinoethyl)benzo[lmn][3,8]phenanthroline-1,3,6,8(2H,7H)-tetraone] | – | – | – | – | – | – | – | – | – | – | – | – | – | – | selectivity for quadruplex over duplex DNA (in words) [2]: superior selectivity for quadruplex over duplex DNA
3 | CN1CCN(CCNc2cc3c4c(c(NCCN5CCN(C)CC5)cc5c4c2C(=O)N(CCN2CCOCC2)C5=O)C(=O)N(CCN2CCOCC2)C3=O)CC1 [Compound 3g, 4,9-bis((2-(4-methylpiperazin-1-yl)ethyl)amino)-2,7-bis(2-morpholinoethyl)benzo[lmn][3,8]phenanthroline-1,3,6,8(2H,7H)-tetraone] | – | – | – | – | – | – | – | – | – | – | – | – | – | – | selectivity for quadruplex over duplex DNA (in words) [2]: superior selectivity for quadruplex over duplex DNA
4 | CN1CCN(CCCNc2cc3c4c(c(NCCCN5CCN(C)CC5)cc5c4c2C(=O)N(CC2CCCO2)C5=O)C(=O)N(CC2CCCO2)C3=O)CC1 (centres unmarked) [MM10] | 23 | 26 | 27 | 30 | 0 | 0 | 21 | 28 | > 10 | 5.57 ± 0.87 | > 10 | 5.65 ± 0.93 | > 10 | > 10 | –
5 | CN1CCN(CCCNc2cc3c4c(c(NCCCN5CCN(C)CC5)cc5c4c2C(=O)N(CC2CCOCC2)C5=O)C(=O)N(CC2CCOCC2)C3=O)CC1 [MM33] | <2 | <2 | <2 | <2 | 0 | 0 | <2 | <2 | 12.65 ± 0.11 | 2.92 ± 0.01 | 1.2 ± 0.03 | 2.5 ± 0.01 | 8.38 ± 0.5 | 3.12 ± 0.13 | –
6 | COCCCN1C(=O)c2cc(NCCCN3CCN(C)CC3)c3c4c(cc(NCCCN5CCN(C)CC5)c(c24)C1=O)C(=O)N(CCCOC)C3=O [MM43] | <2 | 22 | 29 | 32 | 0 | 0 | 24 | 29 | 3.32 ± 0.5 | 2.54 ± 0.01 | 7.17 ± 0.41 | 2.79 ± 0.09 | 10.5 ± 0.14 | 5.62 ± 0.15 | –
7 | CN1CCN(CCCNc2cc3c4c(c(NCCCN5CCN(C)CC5)cc5c4c2C(=O)N(CCN2CCOCC2)C5=O)C(=O)N(CCN2CCOCC2)C3=O)CC1 [MM45] | 27 | 31 | 34 | 36 | 0 | 1 | 29 | 34 | 0.61 ± 0.02 | 1.55 ± 0.02 | 0.63 ± 0.06 | 0.04 ± 0.01 | 1.75 ± 0.18 | 0.17 ± 0.01 | –
8 | CN1CCN(CCNc2cc3c4c(c(NCCN5CCN(C)CC5)cc5c4c2C(=O)N(CCCN2CCOCC2)C5=O)C(=O)N(CCCN2CCOCC2)C3=O)CC1 [MM47] | 28 | 33 | 32 | 36 | 8 | 12 | 31 | 34 | 2.46 ± 0.02 | 0.023 ± 0.006 | – | 0.01 ± 0.01 | 0.28 ± 0.06 | 0.03 ± 0.01 | –

Reference: patent US9493460B2, “Diimide compounds” (UCL BUSINESS PLC, priority 2013, dated 2016)
